Here are results for 86 compounds from a melting point compilation (Tetko et al.; mined from patent text by program, amines drawn as free bases though some values may be those of a salt).

In turn, `O=C(Nc1ccc2[nH]nc(C#Cc3ccccc3)c2c1)N[C@@H](c1ccc(Cl)c(Cl)c1)[C@@H]1CCCCN1` registered a melting point of 160 °C.

`COc1cc(OC)c(NC(=O)CC(C#N)c2ccccc2)c(OC)c1` (stereo unspecified) had a melting point of 157 to 160 °C. `CC1Oc2c(C(=O)[NH+]([O-])C3CN4CCC3CC4)cc(Cl)cc2N(C)C1=O` (stereo unspecified) came in with a melting point of 188 to 190 °C. The value for `OC(C=Cc1ccccc1)Cn1ccnc1` (stereo unspecified) was 108 to 110 °C; that for `CCCCc1ccc(C(=O)NCc2cccc3c2C(=O)N(C2CCC(=O)NC2=O)C3=O)nc1` (stereo unspecified) was 137 to 139 °C; that for `COc1cc2[nH]c(=O)c(=O)n(C)c2cc1[N+](=O)[O-]` was 356 °C. `COc1ccc(S(=O)(=O)N(C(=O)C(F)(F)F)c2ccc(Cl)cc2Cc2c(F)cccc2F)cc1OC` came in with a melting point of 79.7 °C. The figure for `COC(=O)/C=C/[C@H](O)[C@H](Cc1ccccc1)NC(=O)OC(C)(C)C` is 108 to 109 °C; for `COc1ccc(CCCOc2ccc(C(=O)O)cc2)cc1OC` it is 150 to 154 °C. Regarding `Oc1cccc(CCN2CCCC2)c1`, the melting point is 99 to 102 °C.

With `Cc1c(F)c(F)c(F)c2c1c(=O)c(C(=O)O)cn2-c1cccs1`, the melting point lay within 221 to 222 °C. The compound `CC(=O)Nc1ccccc1CSc1nccn1-c1ccncc1` gave a melting point of 153 to 155 °C. `COc1cccc(-n2ccc(=O)c(-c3ccnn3-c3ccccc3)n2)c1` showed a melting point of 110 to 111 °C. `O=c1c2c(n(-c3ccccc3)c3c1CCc1cc(O)ccc1-3)NCCC2`: the melting point was greater than 330 °C. `O=C(Nc1cccc([N+](=O)[O-])c1)C1=C(Nc2ccccc2)COC1=O` displayed a melting point of 194 to 195 °C. The value for `CC(C)c1cccc(-c2ccc(F)cc2)c1O` was 41 to 43 °C; that for `CNC(=O)CCc1ccc2cc(O[C@@H](C)[C@H](O)CCc3cccnc3)ccc2c1` was 68 to 70 °C. The figure for `Cc1nc(-c2ccc([N+](=O)[O-])c(C)c2)c[nH]1` is 158 to 160 °C; for `CS(=O)(=O)Nc1cc2c(cc1Oc1ccc(F)cc1F)C(=O)CC2c1ccccc1` (stereo unspecified) it is 101 °C; for `Cc1cccc(COc2cccc(OCc3ccc(C(C)C)cc3)c2)c1C(=O)O` it is 132 to 133 °C. `COc1ccc(C2C(C#N)=C(N)OC3=C2C(=O)CC(c2cccc4ccccc24)C3)cc1` (stereo unspecified) gave a melting point of 194 to 197 °C. The value for `COCC1(C)CCOc2ccc(/C=C/c3ccc(C(=O)O)cc3)cc21` (stereo unspecified) was 209 to 210 °C; that for `CO[C@]1(c2cnc(SC)s2)CCO[C@@H]1C` (racemic) was 51 to 52 °C. The compound `COCCCNc1ccc([N+](=O)[O-])cc1` registered a melting point of 57 to 59 °C. For `C=CCc1cc2c(ccc(=O)n2CC=C(C)C)c(CC=C)c1O`, the melting point lay within 187 to 189 °C. Consider `O=C1CCC(c2ccc(NC3=NCCO3)cc2)=NN1`, for which the melting point was 332 to 333 °C. The compound `CC(c1ccc(C(=O)O)cc1)N(C)c1ccc(Br)cc1OCc1ccccc1` (stereo unspecified) yielded a melting point of 182 °C. The figure for `COc1ccc(COc2cccc(C=O)c2OCc2ccc(OC)cc2)cc1` is 92 to 93 °C.

The compound `CN1C(=O)CN=C(c2ccccc2)c2c1cc(Cl)c(N)c2Cl` returned a melting point of 228 °C. `Cc1ccc2c(=O)c(CS(C)(=O)=O)cn(C)c2c1` registered a melting point of 193 to 195 °C. The figure for `CCCCCC(=O)c1cnc2c(OC)cccc2c1Nc1ccccc1C` is 94 to 96 °C. `Cc1nc(N2CCN(Cc3ccccc3)S2(=O)=O)sc1C(=O)NCc1ccccc1` returned a melting point of 135 to 137 °C. `CC1(C)C(C=CC(=O)Oc2ccccc2)C1C(=O)O` (stereo unspecified) gave a melting point of 57 °C. The value for `CN(C)CCC1=Cc2ccccc2N(C)c2ccccc21` was 78 °C; that for `CC(=O)Oc1c(C(C)(C)C)cc(CCCO)cc1C(C)(C)C` was 93 to 95 °C. With `C#CCNc1ccc([N+](=O)[O-])cc1[N+](=O)[O-]`, the melting point fell in the range of 151 to 152 °C. Compound `C=C(C[C@@H](Cc1ccccc1)C(=O)N1CCOCC1)[C@H](C)[C@H](Cc1ccccc1)C(=O)N1CCOCC1` (relative stereo) displayed a melting point of 125 to 126 °C. Turning to `O=C(OC1CCCCC1=O)c1ccc(Cl)cc1` (stereo unspecified), the melting point fell in the range of 84 to 85 °C. On to `COc1c2occc2cc2c(C)cc(=O)oc12`, for which the melting point lay within 167 to 168 °C. The compound `CCCOc1ccccc1-c1ncc(C(=O)OCC)c(=O)[nH]1` gave a melting point of 106 to 107 °C. Compound `COC(=O)c1nnc(Cl)cc1Cl` had a melting point of 57 to 59.5 °C. Take `CCSc1ccc(C2=NC[C@@H](OC(=O)Nc3ccccc3)[C@H](c3ccccc3)O2)cc1` (racemic): the melting point was found to be 70 °C. Regarding `CN(C(=O)Cc1ccc(Cl)c(Cl)c1)[C@@H]1Cc2ccccc2C[C@H]1N1CCCC1` (relative stereo), the melting point is 161 to 164 °C. In turn, `COc1ccc(CNc2nc(N)c(C(=O)c3cc(C)sc3C)s2)cc1` gave a melting point of 175 °C. `Cn1cncc1C(O)(c1ccc(Cl)cc1)c1ccc2c(c1)c(CCc1ccc(Cl)s1)cc(=O)n2C` (stereo unspecified): the melting point worked out at 128 °C. The value for `COC(=O)C(O)C(NCc1ccccc1)c1ccccc1` (stereo unspecified) was 99 °C; that for `CN1CC2CN(C(=O)N3c4ccccc4C(=O)Nc4cccnc43)CC2C1` (stereo unspecified) was 157 to 159 °C; that for `COC(=O)NC(=O)CC1=C(Cc2ccc3c(Br)cccc3c2)C(=O)CCC1` was 128 to 129 °C. Regarding `COC(=O)Cn1c(C)cc(Cc2ccsc2)c([N+](=O)[O-])c1=O`, the melting point was 157 to 158 °C. Compound `CCOc1ccc(OCc2ccc(OCc3nc(-c4ccccc4)oc3C)cc2)cc1CC(=O)O` had a melting point of 122 to 123 °C. In turn, `Clc1ccc2[nH]c(Sc3ccccc3)c(C3=NCCN3)c2c1` registered a melting point of 178 °C. Consider `CC(C)(C#N)c1cc(CO)cc(Cn2cncn2)c1`, for which the melting point is 111 to 113 °C.

For the compound `COc1ccc(-n2cnc(-c3cc(OC)c(OC)c(OC)c3)c2-c2ccc(OC)c(O)c2)cc1`, the melting point lay within 65 to 67 °C. Compound `Cc1cc2ncc(-c3nnnn3C)c(O)c2cc1C` displayed a melting point of 301 to 303 °C.

Compound `COC(=O)c1cccc(CC(=O)Nc2cccc(/C=C/c3nc(C4CCC4)cs3)c2)c1` had a melting point of 119 to 120 °C. Take `CC(=O)C1CCC2C3CCC4CC(O)C(N5CCOC(C)(C)C5)CC4(C)C3C(=O)CC12C` (stereo unspecified): the melting point was determined as 163 °C.

In turn, `CCOC(=O)CC(=O)C=Cc1cccc([N+](=O)[O-])c1` showed a melting point of 92 to 93 °C. The compound `CN1CCN(c2ccc([N+](=O)[O-])cn2)CC1` showed a melting point of 75 to 76 °C. Compound `Cc1onc(-c2ccccc2)c1C(=O)NCCCN1CCN(c2cc(F)ccc2OCC(F)(F)F)CC1` gave a melting point of 123 to 125 °C. As to `CN1CCC(C2(O)c3ccccc3CCn3cccc32)CC1` (stereo unspecified), the melting point was 175 to 177 °C. The figure for `CCOC(=O)N(c1ccccc1)c1cc(Cl)ccc1-n1nc(C(=O)O)nc1CCl` is 115 to 117 °C. Turning to `COc1cc(Nc2c(C#N)cnc3cc(OCCOCCN4CCNCC4)c(OC)cc23)c(Cl)cc1Cl`, the melting point lay within 88 to 90 °C. Take `CCOC(=O)CCc1ccc(C(=O)Cc2ccccc2)cc1`: the melting point lay within 50.5 to 52.5 °C. `CCCCCCC(=O)c1ccc2cc(OC)ccc2c1` displayed a melting point of 69 to 72 °C. Compound `O=C(Nc1ccccc1)NC1C(=O)N(CCO)c2ccccc2N(CC23CC4CC(CC(C4)C2)C3)C1=O` (single isomer, unassigned; (-)) came in with a melting point of 165 to 170 °C.

Turning to `CCCCCCCCCCCCCCCCN1CCN(c2ccc(C=CC(=O)O)cc2)CC1`, the melting point lay within 251 to 253 °C. In turn, `CC(C)c1ccc(N(Cc2ccc(N(C)C)cc2)C(=O)C2CCCc3c(O)ccc(F)c32)cc1` (stereo unspecified) came in with a melting point of 209 °C. For `CCOC(=O)Cn1c(C(=O)NCc2nncn2-c2sc(CC)cc2C(=O)c2ccccc2Cl)cc2ccccc21`, the melting point fell in the range of 158 to 160 °C. `Cc1ccc2c(c1)N(C(=O)NCCN1CCC(CCCN(C(C)C)C(C)C)CC1)c1ncccc1NC2=O`: the melting point was 160 to 162 °C. Turning to `O=c1[nH]c2ccc(Cl)cc2n1CCCN1CCN(C(c2ccccc2)c2ccccc2)CC1`, the melting point is 132 °C.

Regarding `Cc1cccc(CO)c1CNc1cc(C(=O)N(C)C)cc2c1nc(C)n2C`, the melting point lay within 197 to 198 °C.

Turning to `Cc1cc(CCC(=O)OC(C)(C)C)nc(-c2nc(=O)c3ccc(Cl)cc3s2)c1`, the melting point lay in the range of 162 to 163 °C.

On to `Nc1ccc(OCc2ccc3ccccc3n2)cc1`, for which the melting point was 126 to 128 °C. In turn, `O=C1Nc2ccccc2Nc2cscc21` registered a melting point of 233 to 234 °C.

As to `O=C1N(Cc2ccc(C(F)(F)F)o2)c2ccccc2C12COc1cc3c(nc12)OCO3` (stereo unspecified), the melting point lay in the range of 175 to 177 °C. On to `COc1ccc(CC(O)c2ccccn2)cc1OC` (stereo unspecified), for which the melting point was 93 to 94 °C. Turning to `CC(=O)N1CCN(c2ncc3c(=O)c(C(=O)O)c[nH]c3n2)CC1`, the melting point lay within 298 to 300 °C. As to `COc1ccc2c(c1)c1c3c(c(-c4c(Cl)cccc4OC)cc1n2CCCO)C(=O)NC3=O`, the melting point was in the range of 224 to 227 °C. For `COc1ccc(C(=O)Nc2ccncc2)c2c3cc(Cl)ccc3n(Cc3ccc(F)cc3)c12`, the melting point lay within 241 to 245 °C.

For `O=C(Nc1cccc(S(=O)(=O)N2CCCC2)c1)c1cnn2c(C(F)F)cc(-c3ccc(Cl)cc3)nc12`, the melting point amounted to 227 °C.

Compound `CC(C)N(CCN1C(=O)C(=O)c2ccccc21)C1CCCCC1` yielded a melting point of 103 to 106 °C. Consider `N#Cc1cnc2cc(-c3csc(CN4CCOCC4)c3)ccc2c1Nc1ccc(Oc2ccccc2)cc1`, for which the melting point was in the range of 221 to 223 °C. As for `Cc1ccc2oc(-c3ccccc3)nc2n1`, the melting point was 148 to 149 °C. The compound `CCCCCCCCCCNC(=O)c1ccc(C(=O)NCCCCCCCCCC)c([N+](=O)[O-])c1` returned a melting point of 159 to 160 °C. On to `Cc1cc(-c2nc3cc(C(C)(C)C)c(Cl)nn3c2-c2ccnc(N)c2)ccc1F`, for which the melting point lay within 232 to 233 °C. The figure for `CCCCCCCCCCCCCCCCCNC(=O)O[C@@H]1CCCO[C@H]1COCc1ccccc1` (relative stereo) is 61 to 63 °C.
